In this assay the target is T1, SMARCA2 (Homo sapiens, UniProt P51531).
T1 construct: endogenous in cells
The assay is described as follows: SMARCA2 HiBiT degradation assay (cellular). In kind it is cell-based. Particulars: for Emax: A549, Emax = amount of residual protein remaining in the cell following compound treatment; for DC50: SMARCA2 HiBiT cells, luminescence readout, 11-point titration from 10 μM, 6 hours or 16 hours, read-out: HiBit A549 SMARCA2 IP. (The HiBiT peptide binds its large partner to form an active luciferase.)

These results are taken from US20230002367A1, “BIFUNCTIONAL COMPOUNDS” (Hoffmann-La Roche Inc., priority 2019, published 2023).

T1 sequence (P51531 whole entry): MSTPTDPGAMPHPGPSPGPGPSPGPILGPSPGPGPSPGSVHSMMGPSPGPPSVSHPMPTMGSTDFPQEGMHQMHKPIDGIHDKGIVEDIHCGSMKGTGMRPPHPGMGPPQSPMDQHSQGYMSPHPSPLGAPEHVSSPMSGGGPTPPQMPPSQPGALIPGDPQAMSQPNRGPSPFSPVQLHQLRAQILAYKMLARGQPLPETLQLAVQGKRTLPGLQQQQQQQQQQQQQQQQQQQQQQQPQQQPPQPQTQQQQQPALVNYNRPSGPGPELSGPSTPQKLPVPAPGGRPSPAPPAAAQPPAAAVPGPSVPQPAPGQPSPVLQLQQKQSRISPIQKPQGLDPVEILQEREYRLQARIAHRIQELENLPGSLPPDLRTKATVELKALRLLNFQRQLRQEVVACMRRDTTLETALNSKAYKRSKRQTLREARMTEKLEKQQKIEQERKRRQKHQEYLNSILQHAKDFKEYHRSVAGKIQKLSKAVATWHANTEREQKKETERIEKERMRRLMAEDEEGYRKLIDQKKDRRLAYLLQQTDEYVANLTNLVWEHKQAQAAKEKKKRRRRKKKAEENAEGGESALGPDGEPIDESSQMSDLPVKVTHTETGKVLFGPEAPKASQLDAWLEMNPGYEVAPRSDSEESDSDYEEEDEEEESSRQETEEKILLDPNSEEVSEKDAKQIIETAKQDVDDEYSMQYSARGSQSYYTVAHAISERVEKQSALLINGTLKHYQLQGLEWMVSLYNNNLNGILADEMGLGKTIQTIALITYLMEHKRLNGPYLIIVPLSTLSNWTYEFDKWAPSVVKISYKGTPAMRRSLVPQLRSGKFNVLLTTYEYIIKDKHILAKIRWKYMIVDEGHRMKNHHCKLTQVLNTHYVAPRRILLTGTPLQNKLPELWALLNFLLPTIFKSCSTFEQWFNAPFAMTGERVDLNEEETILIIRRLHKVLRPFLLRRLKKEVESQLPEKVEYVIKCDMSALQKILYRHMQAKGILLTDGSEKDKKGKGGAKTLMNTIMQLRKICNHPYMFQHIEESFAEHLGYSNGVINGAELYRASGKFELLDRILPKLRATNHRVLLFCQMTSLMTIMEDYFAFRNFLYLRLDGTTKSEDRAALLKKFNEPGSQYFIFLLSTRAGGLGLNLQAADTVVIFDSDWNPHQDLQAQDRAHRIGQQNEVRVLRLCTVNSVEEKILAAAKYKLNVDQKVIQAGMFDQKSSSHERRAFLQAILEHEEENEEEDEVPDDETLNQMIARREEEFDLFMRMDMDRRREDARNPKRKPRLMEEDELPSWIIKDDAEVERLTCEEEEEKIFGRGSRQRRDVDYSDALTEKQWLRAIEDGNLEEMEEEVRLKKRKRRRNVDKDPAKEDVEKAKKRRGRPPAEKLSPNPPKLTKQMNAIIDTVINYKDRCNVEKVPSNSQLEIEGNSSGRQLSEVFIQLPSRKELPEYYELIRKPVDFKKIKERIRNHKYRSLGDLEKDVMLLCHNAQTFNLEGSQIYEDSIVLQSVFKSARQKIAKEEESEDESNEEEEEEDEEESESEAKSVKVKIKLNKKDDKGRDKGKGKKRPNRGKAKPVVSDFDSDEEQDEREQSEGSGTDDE

Usually Emax stands for the maximal effect, on the per cent scale that the assay sets. Regarding `Cc1ncsc1-c1ccc([C@H](C)NC(=O)[C@@H]2C[C@@H](O)CN2C(=O)[C@@H](NC(=O)CCCCCC(=O)N(C)CC(COc2cc(-c3ccccc3O)nnc2N)c2ccccc2)C(C)(C)C)cc1` (mixture of isomers) [Example 21, N′-[3-[3-amino-6-(2-hydroxyphenyl)pyridazin-4-yl]oxy-2-phenyl-propyl]-N′-methyl-N-[rac-(1S)-2,2-dimethyl-1-[rac-(2S,4R)-4-hydroxy-2-[[rac-(1S)-1-[4-(4-methylthiazol-5-yl)phenyl]ethyl]carbamoyl]pyrrolidine-1-carbonyl]propyl]heptanediamide], the Emax is 19% and the DC50 was 1010 nM.

Turning to `Cc1ncsc1-c1ccc([C@H](C)NC(=O)[C@@H]2C[C@@H](O)CN2C(=O)[C@@H](NC(=O)CCCCCCCCCCC(=O)N(C)CC(COc2cc(-c3ccccc3O)nnc2N)c2ccccc2)C(C)(C)C)cc1` (mixture of isomers) [Example 22, N′-[3-[3-amino-6-(2-hydroxyphenyl)pyridazin-4-yl]oxy-2-phenyl-propyl]-N′-methyl-N-[rac-(1S)-2,2-dimethyl-1-[rac-(2S,4R)-4-hydroxy-2-[[rac-(1S)-1-[4-(4-methylthiazol-5-yl)phenyl]ethyl]carbamoyl]pyrrolidine-1-carbonyl]propyl]dodecanediamide], the Emax is 27% and the DC50 was found to be 455 nM.

`Cc1ncsc1-c1ccc([C@H](C)NC(=O)[C@@H]2C[C@@H](O)CN2C(=O)[C@@H](NC(=O)CCCCCCCCCCCCC(=O)N(C)CC(COc2cc(-c3ccccc3O)nnc2N)c2ccccc2)C(C)(C)C)cc1` (mixture of isomers) [Example 23, N′-[3-[3-amino-6-(2-hydroxyphenyl)pyridazin-4-yl]oxy-2-phenyl-propyl]-N′-methyl-N-[rac-(1S)-2,2-dimethyl-1-[rac-(2S,4R)-4-hydroxy-2-[[rac-(1S)-1-[4-(4-methylthiazol-5-yl)phenyl]ethyl]carbamoyl]pyrrolidine-1-carbonyl]propyl]tetradecanediamide]: the Emax was found to be 38% and the DC50 came to 428 nM.

Take `Cc1ncsc1-c1ccc([C@H](C)NC(=O)[C@@H]2C[C@@H](O)CN2C(=O)[C@@H](NC(=O)CCOCCOCCC(=O)N(C)CC(COc2cc(-c3ccccc3O)nnc2N)c2ccccc2)C(C)(C)C)cc1` (mixture of isomers) [Example 24, rac-(2S,4R)-4-hydroxy-1-[rac-(2S)-2-[3-[2-[3-[[3-[3-amino-6-(2-hydroxyphenyl)pyridazin-4-yl]oxy-2-phenyl-propyl]-methyl-amino]-3-oxo-propoxy]ethoxy]propanoylamino]-3,3-dimethyl-butanoyl]-N-[rac-(1S)-1-[4-(4-methylthiazol-5-yl)phenyl]ethyl]pyrrolidine-2-carboxamide]: the Emax amounted to 42% and the DC50 was 2850 nM.

On to `Cc1ncsc1-c1ccc([C@H](C)NC(=O)[C@@H]2C[C@@H](O)CN2C(=O)[C@@H](NC(=O)CCCCCCCCC(=O)N(C)CC(COc2cc(-c3ccccc3O)nnc2N)c2ccccc2)C(C)(C)C)cc1` (mixture of isomers) [Example 25, N′-[3-[3-amino-6-(2-hydroxyphenyl)pyridazin-4-yl]oxy-2-phenyl-propyl]-N′-methyl-N-[rac-(1S)-2,2-dimethyl-1-[rac-(2S,4R)-4-hydroxy-2-[[rac-(1S)-1-[4-(4-methylthiazol-5-yl)phenyl]ethyl]carbamoyl]pyrrolidine-1-carbonyl]propyl]decanediamide], for which the Emax worked out at 19% and the DC50 stood at 348 nM.

As to `Cc1ncsc1-c1ccc([C@H](C)NC(=O)[C@@H]2C[C@@H](O)CN2C(=O)[C@@H](NC(=O)CCCCCC(=O)N(C)CCCN(C)c2ccc(CCOc3cc(-c4ccccc4O)nnc3N)cc2)C(C)(C)C)cc1` (racemic) [Example 26, N′-[3-[4-[2-[3-amino-6-(2-hydroxyphenyl)pyridazin-4-yl]oxyethyl]-N-methyl-anilino]propyl]-N′-methyl-N-[rac-(1S)-2,2-dimethyl-1-[rac-(2S,4R)-4-hydroxy-2-[[rac-(1S)-1-[4-(4-methylthiazol-5-yl)phenyl]ethyl]carbamoyl]pyrrolidine-1-carbonyl]propyl]heptanediamide], the Emax turned out to be 60% and the DC50 was determined as 1440 nM.
